Measurements as given in patent US11629171B2, “Beta-hairpin peptidomimetics” (POLYPHOR AG, priority 2017, dated 2023).
Values after ≈ are worked out from the molar mass of the structure shown. Where a SMILES comes first, the peptide text is derived from it. Bridges are numbered along the chain shown (N, C = ends). Roman numbers before positions name the chains, in order. [ ]: non-standard residue; d: D form. aThr = C[C@H](O)[C@H](N)C(=O)O; Tle = CC(C)(C)[C@H](N)C(=O)O; NMeV = CN[C@H](C(=O)O)C(C)C; dDab = NCC[C@@H](N)C(=O)O; hSer = N[C@@H](CCO)C(=O)O; Dab = NCC[C@H](N)C(=O)O; Dap = NC[C@H](N)C(=O)O

Columns and labels:
Assay type in all cases: cell-based
[1] = tested on: human red blood cells (hRBC); experiment: Hemolysis; details: red cells of human, 1 h, 200
Outline: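 Washed fresh human RBC (20% v/v) incubated with peptide at 200 μg/mL for 1 h at 37° C with shaking. Supernatant OD540 measured after dilution, blank corrected; percent hemolysis = OD540 peptide / OD540 of 2% Triton X-100 lysis × 100, PBS with 10% water as 0%.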

[2] = tested on: Klebsiella pneumoniae 968733; details: 968733
Outline: (§1)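 CLSI broth microdilution in cation-adjusted Mueller-Hinton II broth with 0.002% polysorbate 80 (final), inoculum appr. 10^6 CFU/mL, peptides in serial two-fold dilutions. MIC (μg/mL) is the lowest concentration without visible growth after 18-20 h at 35° C.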

[3] = tested on: Acinetobacter baumannii 872842; details: 872842
Outline: as §1

Escherichia coli 926415 = details: 926415
Outline: as §1

[4] = tested on: Enterobacter cloacae 848840; details: 848840
Outline: as §1

[5] = tested on: Pseudomonas aeruginosa ATCC 27853; details: ATCC 27853
Outline: as §1

[6] = tested on: Escherichia coli ATCC 25922; details: ATCC 25922
Outline: as §1

[7] = tested on: Klebsiella pneumoniae SSI #3010; details: SSI #3010
Outline: as §1

[8] = tested on: Acinetobacter baumannii DSM 30008; details: DSM 30008
Outline: as §1

Row | MIC [2] [µg/mL] | MIC [3] [µg/mL] | MIC (Escherichia coli 926415) [µg/mL] | MIC [4] [µg/mL] | MIC [5] [µg/mL] | MIC [6] [µg/mL] | MIC [7] [µg/mL] | MIC [8] [µg/mL] | Pseudomonas aeruginosa ATCC 27853 MIC [5] [µg/mL] | Escherichia coli ATCC 25922 MIC [6] [µg/mL] | Klebsiella pneumoniae SSI #3010 MIC [7] [µg/mL] | Acinetobacter baumannii DSM 30008 MIC [8] [µg/mL] | SMILES | Hemolysis at 200 μg/mL [1] [%]
1 | 0.25 (≈ 0.104 µM) | 0.125 (≈ 0.0521 µM) | 0.25 (≈ 0.104 µM) | 0.25 (≈ 0.104 µM) |  |  |  |  | 0.125 | 0.0625 | 0.0625 | 0.0625 | CC(=O)N[C@H](C(=O)N[C@H]1CSSC[C@@H](C(=O)N[C@@H](CO)C(N)=O)NC(=O)[C@H](C(C)C)NC(=O)[C@H](CO)NC(=O)[C@H](Cc2c[nH]c3ccccc23)NC(=O)[C@@H](CO)NC(=O)[C@@H](CCN)NC(=O)[C@H](CCC(=O)N[C@@H](CCN)C(=O)N[C@H](C(=O)N[C@@H](CN)C(=O)N[C@H]2CCNC(=O)[C@H]([C@@H](C)O)NC(=O)[C@H](CCN)NC(=O)[C@H](CCN)NC(=O)[C@H](CC(C)C)NC(=O)[C@@H](CC(C)C)NC(=O)[C@H](CCN)NC2=O)[C@@H](C)O)NC(=O)[C@H](CCN)NC(=O)[C@H](Cc2ccc(O)cc2)NC1=O)C(C)C [Ex. 305] (I: Ac-VCY[Dab]E[dDab][dS]WSVCS-NH2 / II: [Dab]T[Dap][Dab][Dab][dL]L[Dab][Dab]T; disulfide I:2-I:11; amide I:5-II:N; lactam II:4-II:C) | 3
2 | 4 (≈ 1.66 µM) | 1 (≈ 0.414 µM) | 0.5 (≈ 0.207 µM) | 8 (≈ 3.32 µM) | 0.25 (≈ 0.104 µM) | 0.125 (≈ 0.0518 µM) | 0.125 (≈ 0.0518 µM) | 0.25 (≈ 0.104 µM) |  |  |  |  | CN[C@H](C(=O)N[C@H]1CSSC[C@@H](C(=O)N[C@@H](CO)C(N)=O)NC(=O)[C@H](C(C)C)NC(=O)[C@H](CCO)NC(=O)[C@H](Cc2c[nH]c3ccccc23)NC(=O)[C@H](CCO)NC(=O)[C@@H](CCN)NC(=O)[C@H](CCC(=O)N[C@@H](CCN)C(=O)N[C@H](C(=O)N[C@@H](CCN)C(=O)N[C@H]2CCNC(=O)[C@H]([C@@H](C)O)NC(=O)[C@H](CCN)NC(=O)[C@H](CCN)NC(=O)[C@H](CC(C)C)NC(=O)[C@@H](CC(C)C)NC(=O)[C@H](CCN)NC2=O)[C@@H](C)O)NC(=O)[C@H](CCN)NC(=O)[C@H](Cc2ccc(O)cc2)NC1=O)C(C)C [Ex. 50] (I: H-[NMeV]CY[Dab]E[dDab][hSer]W[hSer]VCS-NH2 / II: [Dab]T[Dab][Dab][Dab][dL]L[Dab][Dab]T; disulfide I:2-I:11; amide I:5-II:N; lactam II:4-II:C) | <1
3 | 0.125 (≈ 0.0518 µM) | 0.0625 (≈ 0.0259 µM) | 0.0625 (≈ 0.0259 µM) | 0.125 (≈ 0.0518 µM) |  |  |  |  | 0.25 | 0.01562 | 0.125 | 0.01562 | CC(=O)N[C@@H](CC(C)C)C(=O)N[C@H]1CSSC[C@@H](C(=O)N[C@@H](CO)C(N)=O)NC(=O)[C@H](C(C)C)NC(=O)[C@H](CO)NC(=O)[C@H](Cc2c[nH]c3ccccc23)NC(=O)[C@H](CO)NC(=O)[C@@H](CCN)NC(=O)[C@H](CCC(=O)N[C@@H](CCN)C(=O)N[C@H](C(=O)N[C@@H](CN)C(=O)N[C@H]2CCNC(=O)[C@H]([C@@H](C)O)NC(=O)[C@H](CCN)NC(=O)[C@H](CCN)NC(=O)[C@H](CC(C)C)NC(=O)[C@@H](CC(C)C)NC(=O)[C@H](CCN)NC2=O)[C@@H](C)O)NC(=O)[C@H](CCN)NC(=O)[C@H](Cc2ccc(O)cc2)NC1=O [Ex. 314] (I: Ac-LCY[Dab]E[dDab]SWSVCS-NH2 / II: [Dab]T[Dap][Dab][Dab][dL]L[Dab][Dab]T; disulfide I:2-I:11; amide I:5-II:N; lactam II:4-II:C) | 2

More lines, now with the values behind:

Row | SMILES | MIC [2] [µg/mL] | MIC [3] [µg/mL] | MIC (Escherichia coli 926415) [µg/mL] | MIC [4] [µg/mL] | MIC [5] [µg/mL] | MIC [6] [µg/mL] | MIC [7] [µg/mL] | MIC [8] [µg/mL] | Pseudomonas aeruginosa ATCC 27853 MIC [5] [µg/mL] | Escherichia coli ATCC 25922 MIC [6] [µg/mL] | Klebsiella pneumoniae SSI #3010 MIC [7] [µg/mL] | Acinetobacter baumannii DSM 30008 MIC [8] [µg/mL] | Hemolysis at 200 μg/mL [1] [%]
4 | CC(C)C[C@@H]1NC(=O)[C@@H](CC(C)C)NC(=O)[C@H](CCN)NC(=O)[C@@H](NC(=O)[C@H](CCN)NC(=O)[C@@H](NC(=O)[C@H](CCN)NC(=O)CC[C@@H]2NC(=O)[C@@H](NC(=O)[C@H](Cc3ccc(O)cc3)NC(=O)[C@@H](NC(=O)[C@@H](N)C(C)C)[C@@H](C)O)CSSC[C@@H](C(=O)N[C@H](C(=O)N[C@@H](C)C(=O)N[C@@H](CO)C(=O)O)C(C)(C)C)NC(=O)[C@H](Cc3c[nH]c4ccccc34)NC(=O)[C@H]([C@@H](C)O)NC(=O)[C@@H](CCN)NC2=O)[C@@H](C)O)CCNC(=O)[C@H]([C@@H](C)O)NC(=O)[C@H](CCN)NC(=O)[C@H](CCN)NC1=O [Ex. 186] (I: H-VTYCE[dDab]TWC[Tle]AS-OH / II: [Dab]T[Dab][Dab][Dab][dL]L[Dab][Dab]T; disulfide I:4-I:9; amide I:5-II:N; lactam II:4-II:C) | 8 (≈ 3.35 µM) | 0.25 (≈ 0.105 µM) | 1 (≈ 0.419 µM) | 0.25 (≈ 0.105 µM) | 0.125 (≈ 0.0524 µM) | 0.125 (≈ 0.0524 µM) | 0.125 (≈ 0.0524 µM) | 0.0625 (≈ 0.0262 µM) |  |  |  |  | <1
5 | CC(=O)N[C@H](C(=O)N[C@@H](CN)C(=O)N[C@@H](Cc1ccc(O)cc1)C(=O)N[C@H]1CSSC[C@@H](C(=O)N[C@H](C(=O)N[C@@H](CC(=O)O)C(=O)N[C@H](C(N)=O)[C@@H](C)O)C(C)(C)C)NC(=O)[C@H](Cc2c[nH]c3ccccc23)NC(=O)[C@H](CO)NC(=O)[C@@H](CCN)NC(=O)[C@H](CCC(=O)N[C@@H](CCN)C(=O)N[C@H](C(=O)N[C@@H](CN)C(=O)N[C@H]2CCNC(=O)[C@H]([C@@H](C)O)NC(=O)[C@H](CCN)NC(=O)[C@H](CCN)NC(=O)[C@H](CC(C)C)NC(=O)[C@@H](CC(C)C)NC(=O)[C@H](CCN)NC2=O)[C@@H](C)O)NC1=O)C(C)C [Ex. 227] (I: Ac-V[Dap]YCE[dDab]SWC[Tle]DT-NH2 / II: [Dab]T[Dap][Dab][Dab][dL]L[Dab][Dab]T; disulfide I:4-I:9; amide I:5-II:N; lactam II:4-II:C) | 0.5 (≈ 0.205 µM) | 0.125 (≈ 0.0512 µM) | 0.125 (≈ 0.0512 µM) | 0.125 (≈ 0.0512 µM) | 0.125 (≈ 0.0512 µM) | 0.03125 (≈ 0.0128 µM) | 0.125 (≈ 0.0512 µM) | 0.03125 (≈ 0.0128 µM) |  |  |  |  | <1
6 | CC(=O)N[C@@H](CCC(=O)O)C(=O)N[C@H](C(=O)N[C@H](C(=O)N[C@@H](Cc1ccc(O)cc1)C(=O)N[C@@H](CN)C(=O)N[C@@H](CCC(=O)N[C@@H](CCN)C(=O)N[C@H](C(=O)N[C@@H](CN)C(=O)N[C@H]1CCNC(=O)[C@H]([C@@H](C)O)NC(=O)[C@H](CCN)NC(=O)[C@H](CCN)NC(=O)[C@H](CC(C)C)NC(=O)[C@@H](CC(C)C)NC(=O)[C@H](CCN)NC1=O)[C@@H](C)O)C(=O)N[C@H](CCN)C(=O)N[C@@H](CCN)C(=O)N[C@@H](Cc1c[nH]c2ccccc12)C(=O)N[C@@H](CO)C(=O)N[C@H](C(=O)N[C@@H](C)C(=O)N[C@@H](CO)C(=O)N[C@@H](CCN)C(N)=O)C(C)(C)C)[C@@H](C)O)C(C)C [Ex. 247] (I: Ac-EVTY[Dap]E[dDab][Dab]WS[Tle]AS[Dab]-NH2 / II: [Dab]T[Dap][Dab][Dab][dL]L[Dab][Dab]T; amide I:6-II:N; lactam II:4-II:C) | 8 (≈ 3.07 µM) | 0.5 (≈ 0.192 µM) | 0.5 (≈ 0.192 µM) | 0.25 (≈ 0.0958 µM) | 0.25 (≈ 0.0958 µM) | 0.125 (≈ 0.0479 µM) | 0.25 (≈ 0.0958 µM) | 0.125 (≈ 0.0479 µM) |  |  |  |  | <1
7 | CC(=O)N[C@H](C(=O)N[C@H]1CSSC[C@@H](C(=O)N[C@H](C(N)=O)[C@@H](C)O)NC(=O)[C@H](C(C)(C)C)NC(=O)[C@H](CO)NC(=O)[C@H](Cc2c[nH]c3ccccc23)NC(=O)[C@H](CO)NC(=O)[C@@H](CCN)NC(=O)[C@H](CCC(=O)N[C@@H](CCN)C(=O)N[C@H](C(=O)N[C@@H](CN)C(=O)N[C@H]2CCNC(=O)[C@H]([C@@H](C)O)NC(=O)[C@H](CCN)NC(=O)[C@H](CCN)NC(=O)[C@H]([C@H](C)O)NC(=O)[C@@H](CC(C)C)NC(=O)[C@H](CCN)NC2=O)[C@@H](C)O)NC(=O)[C@H](CCN)NC(=O)[C@H](Cc2ccc(O)cc2)NC1=O)C(C)C [Ex. 140] (I: Ac-VCY[Dab]E[dDab]SWS[Tle]CT-NH2 / II: [Dab]T[Dap][Dab][Dab][dL][aThr][Dab][Dab]T; disulfide I:2-I:11; amide I:5-II:N; lactam II:4-II:C) | 0.5 (≈ 0.207 µM) | 0.5 (≈ 0.207 µM) | 0.25 (≈ 0.104 µM) | 0.25 (≈ 0.104 µM) | 0.25 (≈ 0.104 µM) | 0.125 (≈ 0.0518 µM) | 0.125 (≈ 0.0518 µM) | 0.125 (≈ 0.0518 µM) |  |  |  |  | <1
